Results on eleven compounds are retold here after patent US5212189A, “Thiadiazole or oxadiazole analogs of fenamic acids containing substituted hydroxamate side chains as antiinflammatory agents” (Warner-Lambert Company, priority 1991, dated 1993).

Like-named read-outs stand apart in the source and are kept apart here.

One test addresses T1, 5-lipoxygenase (Rattus norvegicus, UniProt P12527).
T1 construct: host or cells: RBL-1 (rat basophilic leukemia)
T1 sequence (P12527 1-673): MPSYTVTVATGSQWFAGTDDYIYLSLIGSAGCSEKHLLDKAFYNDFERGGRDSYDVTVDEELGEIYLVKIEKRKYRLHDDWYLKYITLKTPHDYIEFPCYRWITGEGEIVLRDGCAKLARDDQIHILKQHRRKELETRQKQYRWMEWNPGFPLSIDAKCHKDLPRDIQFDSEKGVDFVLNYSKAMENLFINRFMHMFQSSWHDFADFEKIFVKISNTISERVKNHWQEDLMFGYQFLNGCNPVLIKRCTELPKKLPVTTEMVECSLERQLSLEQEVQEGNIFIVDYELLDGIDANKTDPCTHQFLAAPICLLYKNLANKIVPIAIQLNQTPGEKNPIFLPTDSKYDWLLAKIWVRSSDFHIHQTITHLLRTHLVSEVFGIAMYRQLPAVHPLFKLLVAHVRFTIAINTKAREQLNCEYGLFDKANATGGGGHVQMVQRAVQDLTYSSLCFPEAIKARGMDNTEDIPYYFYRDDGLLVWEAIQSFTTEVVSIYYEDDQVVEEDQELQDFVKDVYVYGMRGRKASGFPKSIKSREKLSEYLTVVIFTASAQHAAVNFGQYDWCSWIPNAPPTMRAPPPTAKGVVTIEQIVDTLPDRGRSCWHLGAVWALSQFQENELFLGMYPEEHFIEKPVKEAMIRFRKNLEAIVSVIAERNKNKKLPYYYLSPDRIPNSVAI
Briefly: ARBL whole cell 5-lipoxygenase assay: inhibition of LTB4 formation in A23187-stimulated RBL-1 cells. It counts as cell-based. To be noted: RBL-1 whole cells; for IC50: RIA of LTB4. The procedure:
(§1) ARBL/ARBC WHOLE CELL 5-LIPOXYGENASE AND CYCLOOXYGENASE ASSAYS
(§2) The rat basophilic leukemia cell line (RBL-1) was obtained from the American Type Culture Collection (Rockville, MD).
(§3) Radioimmunoassay (RIA) kits of LTB4 and PGF2α were obtained from Amersham (Arlington Heights, Ill.) and Seragen (Boston, Mass.), respectively.
(§4) RBL-1 cells are grown in suspension culture in Eagle's minimum essential medium supplemented with 12% fetal bovine serum at 37° C. in an incubator supplied with air 5% carbon dioxide. Cells are harvested by centrifugation. They are washed with cold phosphate-buffered saline, pH 7.4 (PBS; NaCl, 7.1 g; Na2 HPO4, 1.15 g; KH2 PO4, 0.2 g; and KCl, 0.2 g/L). Cells are finally suspended in PBS containing 1.0 mM calcium at a density of 2 × 10^6 cells/mL Cells are incubated and without test agent (in DMSO) (1% DMSO is without effect on arachidonic acid metabolism) for 10 minutes at room temperature. Calcium ionophore A23187 (5 μM) is added and cells are incubated for 7 minutes at 37° C. The reaction is stopped by chilling the tubes on ice for 10 minutes. Cells are separated by centrifugation and the supernatant is stored at -20° C. Aliquots (100 μL) are analyzed for LTB4 and PGF2α using radioimmunoassay kits as provided by the supplier.
(§5) Table 1 contains biochemical data for compounds of Formula I obtained from this whole cell assay as amount of inhibition at 10 μM or IC50 s which are calculated as the concentration of a test compound in micromoles (μM) causing 50% inhibition of LTB4 or PGF2α formation.

A further test addresses T2, cyclooxygenase (Rattus norvegicus, UniProt Q63921).
T2 construct: host or cells: RBL-1 (rat basophilic leukemia)
T2 sequence (Q63921 27-602): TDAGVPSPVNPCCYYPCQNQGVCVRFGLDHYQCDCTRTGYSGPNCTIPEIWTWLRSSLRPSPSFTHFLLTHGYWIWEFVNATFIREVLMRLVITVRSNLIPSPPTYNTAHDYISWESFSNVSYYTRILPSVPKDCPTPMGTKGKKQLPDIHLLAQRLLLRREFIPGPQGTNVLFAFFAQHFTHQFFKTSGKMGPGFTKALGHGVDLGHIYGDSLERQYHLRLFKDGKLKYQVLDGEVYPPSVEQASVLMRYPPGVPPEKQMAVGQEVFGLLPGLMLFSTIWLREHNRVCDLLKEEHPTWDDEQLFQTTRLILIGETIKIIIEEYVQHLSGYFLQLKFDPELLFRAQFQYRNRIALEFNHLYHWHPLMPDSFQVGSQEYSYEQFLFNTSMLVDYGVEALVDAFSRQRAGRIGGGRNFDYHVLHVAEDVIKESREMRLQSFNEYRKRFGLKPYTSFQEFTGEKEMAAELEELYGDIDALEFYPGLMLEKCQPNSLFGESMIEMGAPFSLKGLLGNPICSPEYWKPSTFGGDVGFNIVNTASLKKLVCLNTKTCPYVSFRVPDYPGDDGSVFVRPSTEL
Put plainly: ARBC whole cell cyclooxygenase assay: inhibition of PGF2α formation in A23187-stimulated RBL-1 cells. The settings on record: RBL-1 whole cells; for IC50: RIA of PGF2α. It counts as cell-based. The method, then: as §1, §2, §3, §4, §5

Where [1] appears, read: read-out: ARBL, amount of inhibition of LTB4 at 10 μM.
Setting [2] is: read-out: ARBC, inhibition of PGF2α at 10 μM (class symbol).
Where [3] appears, read: read-out: ARBL, inhibition of LTB4 at 10 μM (class symbol).

On to `CC(=O)N(O)C(C)c1cccc(Nc2ccccc2-c2n[nH]c(=S)o2)c1C` (stereo not shown) [Example 8, N-[1-[3-[[2-(4,5-dihydro-5 thioxo 1,3,4-oxadiazol-2 yl)phenyl]amino]-2 methylphenyl]ethyl]-N-hydroxyacetamide], for which the inhibition (in general, the percentage by which the read-out fell short of the control) at 10 µM at 5-lipoxygenase (setting [1]) was 66%; at cyclooxygenase (setting [2]), less than 40%.

Take `CCOC(=O)N(O)C(C)c1cccc(Nc2ccccc2-c2n[nH]c(=O)o2)c1Cl` (stereo not shown) [Example 15, Ethyl ester of [1-[2-chloro-3-[[2-(4,5-dihydro-5-oxo-1,3,4-voxadiazol-2-yl)phenyl]amino]phenyl]-ethyl]hydroxycarbamic acid]: the IC50 (usually the midpoint of a concentration-inhibition curve) stood at 1090 nM on 5-lipoxygenase and 860 nM on cyclooxygenase.

For the compound `CC(=O)N(O)C(C)c1cccc(Nc2ccccc2-c2n[nH]c(=O)o2)c1` (stereo not shown) [Example 14, N-[1-[3-[[2-(4,5-dihydro-5-oxo-1,3,4-oxadiazol-2-yl)phenyl]amino]phenyl]ethyl]-N-hydroxyacetamide], the inhibition at 10 µM was 100% at 5-lipoxygenase (setting [1]) and less than 40% on cyclooxygenase (setting [2]).

Regarding `CC(=O)N(O)C(C)c1cccc(Nc2ccccc2-c2n[nH]c(=S)o2)c1Cl` (stereo not shown) [Example 7, N-[1-[3-[[2-(4,5-Dihydro-5-thioxo-1,3,4 oxadiazol-2-yl)phenyl]amino]-2-chlorophenyl]ethyl]-N-hydroxy Acetamide], the IC50 against 5-lipoxygenase was found to be 9590 nM; against cyclooxygenase, 1070 nM.

Consider `CCOC(=O)N(O)C(C)c1cccc(Nc2ccccc2-c2n[nH]c(=S)o2)c1Cl` (stereo not shown) [Example 11, Ethyl ester of [1-[2-chloro-3-[[2-(4,5-dihydro-5-thioxo-1,3,4 oxadiazol-2-yl)phenyl]amino]phenyl]-ethyl]hydroxycarbamic acid], for which the IC50 came out at 1140 nM on 5-lipoxygenase and 910 nM against cyclooxygenase.

Regarding `CNC(=O)N(O)C(C)c1cccc(Nc2ccccc2-c2n[nH]c(=S)o2)c1Cl` (stereo not shown) [Example 12, N-[1-[2-chloro-3-[[(4,5-dihydro-5-thioxo-1,3,4-oxadiazol-2-yl)phenyl]amino]phenyl]ethyl]-N-hydroxy-N'-methylurea], the inhibition at 10 µM at 5-lipoxygenase (setting [3]) was less than 40%; on cyclooxygenase (read-out: ARBC, amount of inhibition of PGF2α at 10 μM), 100%.

Take `CC(=O)N(O)C(C)c1cccc(Nc2ccccc2-c2n[nH]c(=O)o2)c1Cl` (stereo not shown) [Example 13]: the IC50 at 5-lipoxygenase turned out to be 680 nM; on cyclooxygenase, 1880 nM.

With `CC(=O)N(O)C(C)c1cccc(Nc2ccccc2-c2nnc(N)o2)c1Cl` (stereo not shown) [Example 17, N-[1-[3-[[2-(5-Amino-1,3,4-oxadiazol-2-yl)phenyl]amino]-2-chlorophenyl]ethyl]-N-hydroxyacetamide], the inhibition at 10 µM at 5-lipoxygenase (setting [1]) was 100%; on cyclooxygenase (setting [2]), less than 40%.

Regarding `CC(=O)N(O)C(C)c1c(C)ccc(Nc2ccccc2-c2n[nH]c(=S)o2)c1C` (stereo not shown) [Example 9, N-[1-[3-[[2-(4,5-dihydro-5-thioxo 1,3,4-oxadiazol-2 yl)phenyl]amino]-2,6 dimethylphenyl]ethyl]-N-hydroxyacetamide], the IC50 on 5-lipoxygenase was 5930 nM; at cyclooxygenase it was more than 10000 nM.

For `CC(=O)N(O)C(C)c1cccc(Nc2ccccc2-c2n[nH]c(=S)o2)c1` (stereo not shown) [Example 10, N-[1-[3-[[2-(4,5-dihydro-5-thioxo-1,3,4-oxadiazol-2-yl)phenyl]amino]phenyl]ethyl]-N-hydroxyacetamide], the inhibition at 10 µM on 5-lipoxygenase (setting [3]) and at cyclooxygenase (setting [2]) was less than 40% in each case.

As to `CNC(=O)N(O)C(C)c1cccc(Nc2ccccc2-c2n[nH]c(=O)o2)c1Cl` (stereo not shown) [Example 16], the IC50 against 5-lipoxygenase amounted to 1870 nM; against cyclooxygenase, 360 nM.
